Laboratory results published in US9132188B2, “Chemically Programmed Vaccination” (The Scripps Research Institute, priority 2009, dated 2015).

Test system: CT26 tumors
Assay: Syngeneic colon cancer model, CT26 tumors in JW-KLH-immunized BALB/C mice
Type: in vivo
Settings: 200 μL i.p. days 2-17; compared with PBS
Procedure: FIG. 5 illustrates inhibition of tumor growth in syngenic mice mediated by adaptor-targeted antibodies. […] Mice (six per group) were treated between days 2 and 17 with 200 μL i.p. injections of PBS alone, 60 μg/mL SCS-873 in PBS, or 27.5 μg/mL SCS-397 in PBS. Mean tumor volumes±SD were determined at 3-day intervals from 12 to 30 days post-grafting. […] Mice (six per group) were treated between days 2 and 17 with 200 μL i.p. injections of PBS alone, 77 μg/mL cRGD-dk in PBS, or 42.5 μg/mL cRGD in PBS. Mean tumor volumes±SD were determined at 3-day intervals from 12 to 30 days post-grafting. […] Mean tumor volumes±SD were determined at 3-day intervals from 12 to 24 days post-grafting. […] Mean tumor volumes±SD were determined at 3-day intervals from 12 to 24 days post-grafting.
On day 65, JW-KLH-immunized BALB/C mice were sorted (6 groups with 6 animals each) to form matched anti-JW titer groups and were inoculated s.c. into right flanks with 0.1 mL (2×10^5 cells/mouse) of CT26 cell suspension in PBS (day 0 for tumor model). […] Tumor volumes of treated animals were measured over the skin in two dimensions using a slide caliper every third day starting on day 12, and the tumor volume was calculated according to the following formula, ½(width)^2×length. Toxicity was monitored by determining the body weight of mice once a week. […]

Q: For cyclo(Arg-Gly-Asp-D-Phe-Lys) [cRGD], which “growth of CT26 tumors (in words)” value is on record?
A: Its value is “no more effective than treatment with PBS”.
